The record followed here is patent US20220355283A1, “DRUG, DRUG MANUFACTURING METHOD, AND WATER PURIFICATION METHOD” (priority 2019, published 2022).

This experiment in a line: Lewis acidity measurement method (1): rate constant for the reaction between CoTPP and oxygen in the presence of a Lewis acid. The format is physicochemical.
The mark [1] stands for this setting: rate constant for reaction between CoTPP and oxygen in presence of the Lewis acid, MeCN, room temperature.

Like-named read-outs stand apart in the source and are kept apart here.

With `CCCC[N+](CCCC)(CCCC)CCCC.F[P-](F)(F)(F)(F)F` [tetrabutylammonium hexafluorophosphate], the “kcat, M^−2 s^−1” value is recorded as more than 0.1 M^−2 s^−1.

Turning to benzalkonium chloride, the “kcat, M^−2 s^−1” value under setting [1] was 0.18 M^−2 s^−1.

On to benzethonium chloride, for which the “kcat, M^−2 s^−1” value under setting [1] worked out at 0.24 M^−2 s^−1.
